For one assay, the target named is T1, human LXRα (Homo sapiens, UniProt Q13133).
T1 construct: biotin (biotinylated; biotinylation tag not described); made in house; host or cells: E. coli
T1 sequence (Q13133 1-447): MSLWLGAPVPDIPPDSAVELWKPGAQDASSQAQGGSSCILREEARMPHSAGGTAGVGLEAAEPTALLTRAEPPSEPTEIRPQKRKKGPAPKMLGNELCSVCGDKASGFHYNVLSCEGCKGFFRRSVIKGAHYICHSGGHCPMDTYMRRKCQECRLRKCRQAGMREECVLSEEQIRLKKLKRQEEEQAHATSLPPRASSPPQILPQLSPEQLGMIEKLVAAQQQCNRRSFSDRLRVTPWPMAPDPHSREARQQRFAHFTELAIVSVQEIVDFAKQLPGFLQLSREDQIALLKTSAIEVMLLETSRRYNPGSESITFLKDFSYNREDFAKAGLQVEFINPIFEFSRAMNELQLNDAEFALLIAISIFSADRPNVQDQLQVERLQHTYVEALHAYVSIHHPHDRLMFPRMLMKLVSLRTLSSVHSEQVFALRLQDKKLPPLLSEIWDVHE
Kind of assay: Ligand-binding test procedure for human LXRα (3H T0901317 competition, flash plates). Conditions: biotinylated hLXRα, tracer 3H T0901317. The protocol:
Ligand-Binding Test Procedure for Human LXRα.
Receptor source: E. coli extract from cells expressing biotinylated hLXRα. Extract was made in a similar buffer as above, but with 50 mM TRIS.
(§1) Washed streptavidin and coated flash plates with wash buffer.
(§2) Diluted receptor extract to give Bmax ˜4000 cpm and add to the wells.
(§3) Wrapped the plates in aluminum foil and stored them at +4° C. over night.
(§4) Made a dilution series in DMSO of the test ligands.
(§5) Made a 5 nM solution of the radioactive tracer in buffer.
(§6) Mixed 250 μl diluted tracer with 5 μl of the test ligand from each concentration of the dilution series.
(§7) Washed the receptor-coated flash plates.
(§8) Added 200 μl per well of the ligand/radiolabel mixture to the receptor-coated flash plates.
(§9) Wrapped the plates in aluminum foil and incubate at +4° C. over night.
(§10) Aspirated wells, and wash the flashed plates. Sealed the plate.
(§11) Measured the remaining radioactivity in the plate.

The next assay concerns the target T2, human LXRβ (Homo sapiens, UniProt P55055).
T2 construct: biotin (biotinylated; biotinylation tag not described); made in house; host or cells: E. coli
T2 sequence (P55055 1-460): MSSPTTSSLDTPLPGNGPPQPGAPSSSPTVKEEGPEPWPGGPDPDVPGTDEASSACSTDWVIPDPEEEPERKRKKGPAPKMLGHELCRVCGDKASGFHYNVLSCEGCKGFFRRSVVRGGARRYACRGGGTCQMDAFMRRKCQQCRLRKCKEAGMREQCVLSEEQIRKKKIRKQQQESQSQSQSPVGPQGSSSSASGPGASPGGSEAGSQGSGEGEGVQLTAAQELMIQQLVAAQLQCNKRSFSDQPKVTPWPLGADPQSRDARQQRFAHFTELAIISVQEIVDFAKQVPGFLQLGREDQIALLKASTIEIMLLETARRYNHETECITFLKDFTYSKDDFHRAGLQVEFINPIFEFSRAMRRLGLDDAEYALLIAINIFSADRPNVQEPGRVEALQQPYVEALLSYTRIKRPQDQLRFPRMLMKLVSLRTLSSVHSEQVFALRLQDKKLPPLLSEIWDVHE
Kind of assay: Ligand-binding test procedure for human LXRβ (3H T0901317 competition, flash plates). Conditions: for Binding ratio a/b: IC50 (μM) LXRα binding/IC50 (μM) LXRβ binding; for IC50: biotinylated hLXRβ, tracer 3H T0901317. As for the experimental part: Ligand-Binding Test Procedure for Human LXRβ.
Receptor source: E. coli extract from cells expressing biotinylated hLXRβ. Extract was made in a similar buffer as above, but with 50 mM TRIS.
as §1, §2, §3, §4, §5, §6, §7, §8, §9, §10, §11

One may read the IC50 as the concentration at which inhibition is half-maximal. High values mean weaker potency, low ones greater potency.

Molecules are shown by their SMILES.

`CC(C)C[C@H](NC(=O)c1ccc(COc2cccc(-c3c(Cc4ccccc4)cnc4c(C(F)(F)F)cccc34)c2)cc1)C(=O)O` [Example 81, N-[4-({3-[3-benzyl-8-(trifluoromethyl)quinolin-4-yl]phenoxy}methyl)benzoyl]leucine] gave an IC50 at human LXRα of 0.654 µM. Further, on human LXRβ, the Binding ratio a/b is on record as 3 and the IC50 turned out to be 0.236 µM.
The like results for `O=C(O)c1c(Cl)cccc1NCc1cccc(-c2c(Cc3ccccc3)cnc3c(C(F)(F)F)cccc23)c1` [Example 111, 2-({3-[3-benzyl-8-(trifluoromethyl)quinolin-4-yl]benzyl}amino)-6-chlorobenzoic acid] were, in that order, 0.874 µM, 1 and 0.709 µM.
Taken in the same sequence, the figures for `O=C(O)Cc1ccc(NCc2cccc(-c3c(Cc4ccccc4)cnc4c(C(F)(F)F)cccc34)c2)cc1Cl` [Example 50, [4-({3-[3-benzyl-8-(trifluoromethyl)quinolin-4-yl]benzyl}amino)-2-chlorophenyl]acetic acid] were 0.02 µM, 6 and 0.004 µM.
Taken in the same sequence, the figures for `Cc1ccc(C(=O)O)cc1C#Cc1cccc(-c2c(Cc3ccccc3)cnc3c(C(F)(F)F)cccc23)c1` [Example 129, 3-({3-[3-Benzyl-8-(trifluoromethyl)quinolin-4-yl]phenyl}ethynyl)-4-methylbenzoic acid] were 0.656 µM, 1 and 0.605 µM.
Take `O=C(O)c1ccc(Cl)cc1NCc1cccc(-c2c(Cc3ccccc3)cnc3c(C(F)(F)F)cccc23)c1` [Example 91, 2-({3-[3-benzyl-8-(trifluoromethyl)quinolin-4-yl]benzyl}amino)-4-chlorobenzoic acid]: the IC50 at human LXRα was found to be 1.08 µM. Moreover, at human LXRβ, the Binding ratio a/b was determined as 2 and the IC50 was 0.477 µM.
The like results for `O=C(O)c1ccccc1NCc1cccc(-c2c(Cc3ccccc3)cnc3c(C(F)(F)F)cccc23)c1` [Example 97, 2-({3-[3-benzyl-8-(trifluoromethyl)quinolin-4-yl]benzyl}amino)benzoic acid] were, in that order, 0.493 µM, 2 and 0.237 µM.
The like results for `Cc1cccc(NCc2cccc(-c3c(Cc4ccccc4)cnc4c(C(F)(F)F)cccc34)c2)c1C(=O)O` [Example 93, 2-({3-[3-benzyl-8-(trifluoromethyl)quinolin-4-yl]benzyl}amino)-6-methylbenzoic acid] were, in that order, 2 µM, 2 and 0.906 µM.
The like results for `O=C(O)C1CCN(C(=O)c2ccc(COc3cccc(-c4c(Cc5ccccc5)cnc5c(C(F)(F)F)cccc45)c3)cc2)CC1` [Example 60, 1-[4-({3-[3-benzyl-8-(trifluoromethyl)quinolin-4-yl]phenoxy}methyl)benzoyl]piperidine-4-carboxylic acid] were, in that order, 0.178 µM, 5 and 0.038 µM.
With `O=C(O)Cc1cccc2c(OCc3cncc(-c4ccnc5c(C(F)(F)F)cccc45)c3)cccc12` [Example 118, [5-({5-[8-(trifluoromethyl)quinolin-4-yl]pyridin-3-yl}methoxy)-1-naphthyl]acetic acid], the figures for the IC50 at human LXRα and on human LXRβ were > 1 µM and 3.74 µM, respectively.
As to `Cc1cc(NCc2cccc(-c3c(C)cnc4c(C(F)(F)F)cccc34)c2)c(C)cc1CC(=O)O` [Example 7, [2,5-Dimethyl-4-({3-[3-methyl-8-(trifluoromethyl)quinolin-4-yl]-benzyl}amino)phenyl]acetic acid], the figures for the IC50 at human LXRα and on human LXRβ were 0.223 µM and 0.009 µM, respectively. Moreover, the Binding ratio a/b on human LXRβ is listed as 24.
For `O=C(O)c1cccc(-c2cccc(-c3c(Cc4ccccc4)cnc4c(C(F)(F)F)cccc34)c2)c1` [Example 130, 3′-[3-Benzyl-8-(trifluoromethyl)quinolin-4-yl]biphenyl-3-carboxylic acid], the IC50 on human LXRα amounted to 1.32 µM; at human LXRβ it was 2.38 µM.
Compound `Cc1cc(C(=O)O)c(C)cc1NCc1cncc(-c2c(Cc3ccccc3)cnc3c(C(F)(F)F)cccc23)c1` [Example 14, 4-[({5-[3-benzyl-8-(trifluoromethyl)quinolin-4-yl]pyridin-3-yl}methyl)amino]-2,5-dimethylbenzoic acid] came in with an IC50 at human LXRα of 3.21 µM. Further, on human LXRβ, the Binding ratio a/b was 22 and the concentration for half-maximal inhibition (IC50) amounted to 0.148 µM.
With `O=C(O)Cc1cccc2ccc(OCc3cccc(-c4ccnc5c(C(F)(F)F)cccc45)c3)cc12` [Example 107, [7-({3-[8-(trifluoromethyl)quinolin-4-yl]benzyl}oxy)-1-naphthyl]acetic acid], the IC50 at human LXRα was 7.38 µM. Besides, at human LXRβ, the Binding ratio a/b was 1 and the IC50 turned out to be 5.54 µM.
Taken in the same sequence, the figures for `O=C(O)Cc1ccc(NCc2cccc(-c3ccnc4c(C(F)(F)F)cccc34)c2)c2ccccc12` [Example 65, [4-({3-[8-(trifluoromethyl)quinolin-4-yl]benzyl}amino)-1-naphthyl]acetic acid] were 8.83 µM, 4 and 2.05 µM.
Taken in the same sequence, the figures for `O=C(O)c1cc(Br)cc(Oc2cccc(-c3c(Cc4ccccc4)cnc4c(Cl)cccc34)c2)c1` [Example 122, 3-[3-(3-Benzyl-8-chloroquinolin-4-yl)phenoxy]-5-bromobenzoic acid] were 1.51 µM, 2 and 0.772 µM.
Taken in the same sequence, the figures for `Cn1c(C(=O)O)cc2cccc(NCc3cccc(-c4c(Cc5ccccc5)cnc5c(C(F)(F)F)cccc45)c3)c21` [Example 105, 7-({3-[3-benzyl-8-(trifluoromethyl)quinolin-4-yl]benzyl}amino)-1-methyl-1H-indole-2-carboxylic acid] were 0.185 µM, 1 and 0.129 µM.
In the case of `O=C(O)c1c(F)cccc1OCc1cccc(-c2c(Cc3ccccc3)cnc3c(C(F)(F)F)cccc23)c1` [Example 89, 2-({3-[3-benzyl-8-(trifluoromethyl)quinolin-4-yl]benzyl}oxy)-6-fluorobenzoic acid], the IC50 on human LXRα amounted to 3.98 µM; on human LXRβ, 1.6 µM. The Binding ratio a/b at human LXRβ came out at 2.
`Cc1cc(C(=O)O)c(C)cc1NCc1cccc(-c2c(C)cnc3c(C(F)(F)F)cccc23)c1` [Example 25, 2,5-dimethyl-4-({3-[3-methyl-8-(trifluoromethyl)quinolin-4-yl]benzyl}amino)benzoic acid]: the results for the 50% inhibitory concentration (IC50) on human LXRα and on human LXRβ were 1.07 µM and 0.104 µM, respectively. At human LXRβ, the Binding ratio a/b amounted to 10.
Taken in the same sequence, the figures for `Cc1cnc2c(C(F)(F)F)cccc2c1-c1cccc(CNc2cccc(F)c2C(=O)O)c1` [Example 115, 2-fluoro-6-({3-[3-methyl-8-(trifluoromethyl)quinolin-4-yl]benzyl}amino)benzoic acid] were 10.7 µM, 10.3 µM and 1.
The like results for `O=C(O)[C@@H]1CCCN1C(=O)c1cccc(COc2cccc(-c3c(Cc4ccccc4)cnc4c(C(F)(F)F)cccc34)c2)c1` [Example 59, 1-[3-({3-[3-benzyl-8-(trifluoromethyl)quinolin-4-yl]phenoxy}methyl)benzoyl]proline] were, in that order, 0.467 µM, 0.098 µM and 5.

The values above are taken from patent publication US20090069373A1, “Quinoline Acids” (Wyeth, priority 2007, published 2009).
